Measurements taken from PMC8192494 (European journal of medicinal chemistry, 2021).
Values joined by “and” are separate entries in the source; they are usually repeats but may differ in a detail not shown here. Equal values may be shown once.

Experiments:
[1] = tested on: DHT-induced growth of LNCaP (AR+) PCa cells; assay: Inhibition of dihydrotestosterone-induced cell proliferation of LNCaP PCa cells; settings: 0.1 nM DHT, 48 h; for inhibition of growth induced by DHT: 0.125 μM dimer
[2] = molecular target: isolated recombinant CYP3A4 (Homo sapiens, UniProt P08684); assay: Equilibrium ligand binding to CYP3A4; settings: for high spin: high spin content of ligand-bound CYP3A4, mean of three ± SD; for Kd, fold lower than for 14β: relative to 14β
[3] = tested on: TS-induced growth of LNCaP (AR+) PCa cells; assay: Inhibition of testosterone-induced cell proliferation of LNCaP PCa cells; type: cell-based, human; settings: 48 h; for reduction relative to the proliferative response induced by 0.1 nM TS: 1 μM dimer
[4] = tested on: LNCaP (AR+) androgen-sensitive human prostate adenocarcinoma cells; assay: MTT antiproliferative activity assay on LNCaP cells; type: cell-based; settings: relative to cyproterone acetate
[5] = tested on: PC3 (AR−) androgen-insensitive human prostate adenocarcinoma cells; assay: MTT antiproliferative activity assay on PC3 cells; type: cell-based; settings: read-out: IC50 PC3 (AR−), 48 h, concentration inhibiting cell growth by 50%
[6] = tested on: LNCaP, PC3 and DU145 prostate cancer cells; assay: MTT antiproliferative activity, summarised over the three PCa cell lines; type: cell-based; settings: Homo sapiens, read-out: IC50 range on different cell lines
LNCaP (AR+) PCa cells = settings: read-out: IC50 LNCaP (AR+); MTT antiproliferative assay; cited from earlier work
PC3 (AR−) PCa cells = settings: read-out: IC50 PC3 (AR−); MTT antiproliferative assay; cited from earlier work

Sequence of isolated recombinant CYP3A4 (P08684 whole entry): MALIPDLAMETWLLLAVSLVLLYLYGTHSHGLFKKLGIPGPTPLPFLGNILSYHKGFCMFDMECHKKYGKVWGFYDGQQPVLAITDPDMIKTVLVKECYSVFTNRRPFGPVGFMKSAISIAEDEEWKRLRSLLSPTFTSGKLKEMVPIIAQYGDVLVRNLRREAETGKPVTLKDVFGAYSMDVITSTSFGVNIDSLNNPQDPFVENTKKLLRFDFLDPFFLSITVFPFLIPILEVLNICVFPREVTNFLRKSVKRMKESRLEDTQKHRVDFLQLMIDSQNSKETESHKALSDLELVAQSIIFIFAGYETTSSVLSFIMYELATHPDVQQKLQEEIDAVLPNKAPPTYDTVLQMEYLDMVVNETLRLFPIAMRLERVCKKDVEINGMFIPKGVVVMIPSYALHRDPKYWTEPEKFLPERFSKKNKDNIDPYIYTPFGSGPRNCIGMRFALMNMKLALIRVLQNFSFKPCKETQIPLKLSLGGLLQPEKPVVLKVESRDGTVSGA

## C[C@]12CC[C@H]3[C@@H]([C@H](/C=C/C=C/C=C/[C@@H]4CC5=CC(=O)CC[C@]5(C)[C@H]5CC[C@]6(C)[C@H](O)CC[C@H]6[C@H]45)CC4=CC(=O)CC[C@@]43C)[C@@H]1CC[C@H]2O (relative stereo) [Compound 14α, trans, trans,trans-1,6-bis-(17α-hydroxy-4-androsten-3-one-7α-yl)hexatriene]
[1]
  concentration at which 100% effective against DHT-induced cell proliferation: 1 µM
  inhibition of growth induced by DHT: at least 45%
[2]
  high spin: 46 ± 3%
  Kd, fold lower than for 14β: ~ 4 fold
[3]; 0.1 nM TS
  concentration at which 100% effective against TS-induced cell proliferation: 0.25 µM
[3]
  reduction relative to the proliferative response induced by 0.1 nM TS: ~ 141%

## C[C@]12CC[C@H]3[C@@H]([C@H](/C=C/C=C/C=C/[C@@H]4CC5=CC(=O)CC[C@]5(C)[C@H]5CC[C@]6(C)[C@@H](O)CC[C@H]6[C@H]45)CC4=CC(=O)CC[C@@]43C)[C@@H]1CC[C@@H]2O (relative stereo) [Compound 14β, trans, trans,trans-1,6-bis-(17β-hydroxy-4-androsten-3-one-7α-yl)hexatriene]
[1]
  concentration at which 100% effective against DHT-induced cell proliferation: 1 µM
  inhibition of growth induced by DHT: at least 45%
[2]
  high spin: 49 ± 3%
[3]; 0.1 nM TS
  concentration at which 100% effective against TS-induced cell proliferation: 0.5 µM
[3]; 0.125 μM dimer, 0.1 nM TS
  inhibition of growth induced by TS: at least 45%
[3]
  reduction relative to the proliferative response induced by 0.1 nM TS: 104%
[4]
  times more active than CPA (IC50 ratio): ~ 5 times

## C=CC=C[C@@H]1CC2=CC(=O)CC[C@]2(C)[C@H]2CC[C@]3(C)[C@H](O)CC[C@H]3[C@H]12 [Compound 13α, 7α-(buta-1,3-dienyl)-4-androsten-17α-ol-3-one]
[5]
  IC50: 31.5 µM
[4]
  times more active than CPA (IC50 ratio): about 4 times

## C=CC=C[C@@H]1CC2=CC(=O)CC[C@]2(C)[C@H]2CC[C@]3(C)[C@@H](O)CC[C@H]3[C@H]12 [Compound 13β, 7α-(buta-1,3-dienyl)-4-androsten-17β-ol-3-one]
[5]
  IC50: 34.1 µM

## C[C@]12CCC(=O)C=C1C[C@@H](/C=C/C=C/C=C/[C@@H]1CC3=CC(=O)CC[C@]3(C)[C@H]3CC[C@]4(C)C(=O)CC[C@H]4[C@H]13)[C@@H]1[C@@H]2CC[C@]2(C)C(=O)CC[C@@H]12 [Compound 14, trans, trans,trans-1,6-bis-(4-androsten-3,17-dione-7α-yl)hexatriene]
[2]
  high spin: 36 ± 2%
  Kd, fold lower than for 14β: ~ 4 fold
[6]
  IC50: 29 to 72.7 µM

## C[C@]12CC[C@H]3[C@@H]([C@H]([C@H]4C=CC[C@H]5C(=O)OC(=O)[C@@H]45)CC4=CC(=O)CC[C@@]43C)[C@@H]1CC[C@@H]2O [Compound 15, 4-(17β-hydroxy-4-androsten-3-one-7α-yl)-3a,4,7,7a-tetrahydro-isobenzofuran-1,3-dione]
[6]
  IC50: 62.5 to 131 µM

## C[C@]12CC[C@H]3[C@@H]([C@H](C/C=C\C[C@@H]4CC5=CC(=O)CC[C@]5(C)[C@H]5CC[C@]6(C)[C@@H](O)CC[C@H]6[C@H]45)CC4=CC(=O)CC[C@@]43C)[C@@H]1CC[C@@H]2O [cis-10]
[2]
  high spin: 99 ± 1%
LNCaP (AR+) PCa cells
  IC50: 30.3 µM
PC3 (AR−) PCa cells
  IC50: 24.7 µM

## C[C@]12CC[C@H]3[C@@H]([C@H](C/C=C/C[C@@H]4CC5=CC(=O)CC[C@]5(C)[C@H]5CC[C@]6(C)[C@@H](O)CC[C@H]6[C@H]45)CC4=CC(=O)CC[C@@]43C)[C@@H]1CC[C@@H]2O [trans-10, reference compound]
[2]
  high spin: 65% and 65 ± 4%
